# Experimental data published in doi:10.1101/2025.07.30.663779v2 (biorxiv, 2025).
# What was measured:
# recombinant streptavidin = recombinant streptavidin (Streptomyces avidinii, UniProt P22629); assay: fluorescence polarization titration; format: binding; settings: PBS; 20 nM biotin-FITC (Millipore-Sigma cat. 53608); labelled compound
# αCD40-mSAs = assay: fluorescence polarization titration; format: binding; settings: PBS; 20 nM biotin-FITC (Millipore-Sigma cat. 53608); labelled compound
# recombinant streptavidin, sequence (P22629 25-183): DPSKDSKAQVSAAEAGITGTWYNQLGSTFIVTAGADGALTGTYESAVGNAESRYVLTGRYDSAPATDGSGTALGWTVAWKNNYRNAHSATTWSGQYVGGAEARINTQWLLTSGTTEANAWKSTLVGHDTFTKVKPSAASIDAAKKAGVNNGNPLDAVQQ
substance,measurement,setting,value
biotin-FITC,Kd,recombinant streptavidin,0.0206 µM
same,Kd,αCD40-mSAs,0.0692 µM
